Experiments:
Format in all cases: cell-based
mouse P2X4 receptors = biological target: T1, mouse P2X4 receptors (Mus musculus, UniProt Q9JJX6); test: Assay B: mouse P2X4 receptor cell line, Fluo8 fluorescence FLIPR (agonist Bz-ATP at EC50); conditions: HEK mouse P2X4 cell line, agonist Bz-ATP at EC50, average
T1 construct: host or cells: HEK 293 (recombinant, constitutively expressing)
T1 sequence (Q9JJX6 1-388): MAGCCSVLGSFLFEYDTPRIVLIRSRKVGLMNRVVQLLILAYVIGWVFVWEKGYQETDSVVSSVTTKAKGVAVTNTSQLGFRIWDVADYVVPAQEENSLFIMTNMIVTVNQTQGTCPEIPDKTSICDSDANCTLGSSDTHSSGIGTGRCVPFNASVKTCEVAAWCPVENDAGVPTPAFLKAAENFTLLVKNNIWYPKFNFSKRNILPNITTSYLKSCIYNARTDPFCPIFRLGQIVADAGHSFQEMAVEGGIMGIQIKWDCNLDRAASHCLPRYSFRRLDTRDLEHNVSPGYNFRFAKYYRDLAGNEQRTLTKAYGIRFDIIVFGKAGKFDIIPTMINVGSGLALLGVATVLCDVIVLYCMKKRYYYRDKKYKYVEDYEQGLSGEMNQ
Experimental: The identification of agonists and antagonists of the P2X4 receptor from humans and […] also the quantification of the activity of the compounds of the invention was performed by use of recombinant cell lines. […] The test cell lines constitutively express the mouse or human P2X4 receptors. Stimulation of the receptors with an agonist leads to a conformational change of P2X4 and influx of extracellular calcium ions through the ion channel. The cytoplasmatic calcium transient is detected via the calcium sensitive dye Fluo8 for the mouse P2×4 cell line or in case of the human P2×4 cell line a stably expressed calcium-sensitive photoprotein, mitochondrial photina, which, after reconstitution with the cofactor coelenterazine, emits light in dependence of calcium binding [Bovolenta S, Foti M, Lohmer S, Corazza S., J Biomol Screen. […] The strength of Fluo8 fluorescence signal or photina luminescence signal corresponds to the level of receptor activation. An inhibitor would decrease the signal depending on its potency and concentration.
On the day of the assay medium is exchanged by Fluo8 containing buffer for 30 minutes. In the fluorescence reader (FLIPR) test substances in various concentrations are added for 10 minutes. After baseline measurement the agonist Bz-ATP at EC50 concentration is applied and fluorescence is measured immediately.

P2X4 [1] = biological target: T2, P2X4 (Homo sapiens, UniProt Q99571); test: Assay B: human P2X4 receptor cell line, mitochondrial photina luminescence (agonist Bz-ATP at EC50); parameters: host or cells: HEK 293 (recombinant, constitutively expressing; with mitochondrial photina in Assay B); conditions: HEK human P2X4 cell line, photina luminescence, agonist Bz-ATP at EC50, average; for Emax: read-out: human P2X4 Assay B avg Efficacy
T2 sequence (Q99571 1-388): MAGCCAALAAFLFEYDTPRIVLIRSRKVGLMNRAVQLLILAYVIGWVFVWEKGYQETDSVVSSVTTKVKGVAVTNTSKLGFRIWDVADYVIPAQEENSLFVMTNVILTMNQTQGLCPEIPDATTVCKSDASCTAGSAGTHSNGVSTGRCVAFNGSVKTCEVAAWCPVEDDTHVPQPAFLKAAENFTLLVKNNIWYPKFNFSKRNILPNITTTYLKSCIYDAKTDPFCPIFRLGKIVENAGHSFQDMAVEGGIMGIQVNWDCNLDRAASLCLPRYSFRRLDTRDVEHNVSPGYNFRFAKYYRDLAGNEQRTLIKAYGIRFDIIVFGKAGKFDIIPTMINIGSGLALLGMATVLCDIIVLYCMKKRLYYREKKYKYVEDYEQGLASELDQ
Summary of the method: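 Recombinant cell line constitutively expressing human P2X4 and mitochondrial photina photoprotein, reconstituted with coelenterazine. Receptor stimulated with Bz-ATP at EC50; calcium influx read immediately as luminescence.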

P2X4 [2] = biological target: T2, P2X4; test: Assay A: human P2X4 receptor cell line, FLIPR calcium assay (Fluo-8, agonist Bz-ATP at EC80); parameters: host or cells: HEK 293 (recombinant, constitutively expressing; with mitochondrial photina in Assay B); conditions: HEK human P2X4 cells, Fluo-8 FLIPR; for IC50: Bz-ATP at EC80, average values; for Emax: percentage of maximal inhibition, read-out: human P2X4 Assay A avg Efficacy
Summary of the method: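 HEK cells expressing human P2X4 (20,000/well, plated ~20 h earlier) loaded 30 min with 5 μM Fluo-8 in HBSS/HEPES buffer with 1.8 mM CaCl2, 1 mM MgCl2, 2 mM probenecid, pH 7.4. Antagonist preincubated 30 min at room temperature (0.5% DMSO), then Bz-ATP at EC80. Peak fluorescence over 120 s, normalized to DMSO; triplicate IC50 and Hill fits.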

Compound | IC50 (mouse P2X4 receptors) | mouse P2X4 Assay B avg Efficacy (mouse P2X4 receptors) | IC50 (P2X4 [1]) | Emax (P2X4 [1]) | IC50 (P2X4 [2]) | Emax (P2X4 [2])
NS(=O)(=O)c1cc(NC(=O)Cc2ccccn2)ccc1Oc1cccc(Cl)c1 [Example 185, N-[4-(3-Chlorophenoxy)-3-sulfamoylphenyl]-2-(pyridin-2-yl)acetamide] | > 16 µM | 22% | 0.567 µM | 77% |  | 
CC(C)(O)c1ccccc1Oc1ccc(NC(=O)Cc2ccccc2Cl)cc1S(N)(=O)=O [Example 275, 2-(2-Chlorophenyl)-N-{4-[2-(2-hydroxypropan-2-yl)phenoxy]-3-sulfamoylphenyl}acetamide] |  | 44% |  |  |  | 
COC(=O)c1ccc(Oc2ccc(NC(=O)Cc3ccccc3Cl)cc2S(N)(=O)=O)cc1 [Example 273, Methyl 4-(4-{[(2-chlorophenyl)acetyl]amino}-2-sulfamoylphenoxy)benzoate] | 0.149 µM | 45% |  |  | 0.018 µM | 78%
NS(=O)(=O)c1cc(NC(=O)Cc2c(F)cccc2Cl)ccc1Oc1cccc(Cl)c1 [Example 100, 2-(2-Chloro-6-fluorophenyl)-N-[4-(3-chlorophenoxy)-3-sulfamoylphenyl]acetamide] |  | 43% |  |  |  | 
Cc1cc(NC(=O)Cc2ccccc2Cl)cc(S(N)(=O)=O)c1Oc1cccc(Cl)c1 [Example 270, N-[4-(3-Chlorophenoxy)-3-methyl-5-sulfamoylphenyl]-2-(2-chlorophenyl)acetamide] | 1.24 µM | 44% |  |  | 0.104 µM | 94%
NS(=O)(=O)c1cc(NC(=O)Cc2ccccc2)ccc1OCc1ccccc1 [Example 146, N-[4-(Benzyloxy)-3-sulfamoylphenyl]-2-phenylacetamide] | > 50 µM | 7% | 0.314 µM | 71% |  | 
CC(C(=O)Nc1ccc(Oc2cccc(Cl)c2)c(S(N)(=O)=O)c1)c1c(F)cccc1Cl (stereo not shown) [Example 258, 2-(2-Chloro-6-fluorophenyl)-N-[4-(3-chlorophenoxy)-3-sulfamoylphenyl]propanamide] | 0.26 µM | 52% |  |  | 0.779 µM | 76%
NS(=O)(=O)c1cc(NC(=O)Cc2c(F)ccc(F)c2Cl)ccc1Oc1cccc(Cl)c1 [Example 122, 2-(2-Chloro-3,6-difluorophenyl)-N-[4-(3-chlorophenoxy)-3-sulfamoylphenyl]acetamide] |  |  | 0.105 µM | 54% | 0.026 µM | 83%
NS(=O)(=O)c1cc(NC(=O)Cc2ccccc2Cl)ccc1Oc1cccc(C(F)F)c1 [Example 031, 2-(2-Chlorophenyl)-N-{4-[3-(difluoromethyl)phenoxy]-3-sulfamoylphenyl}acetamide] |  |  | 0.122 µM | 71% | 0.024 µM | 76%
NS(=O)(=O)c1cc(NC(=O)Cc2ccccc2OC(F)F)ccc1Oc1cccc(Cl)c1 [Example 113, N-[4-(3-Chlorophenoxy)-3-sulfamoylphenyl]-2-[2-(difluoromethoxy)phenyl]acetamide] |  |  | 0.239 µM | 73% | 0.173 µM | 88%
Cc1cc(NC(=O)Cc2ccccc2)cc(S(N)(=O)=O)c1Oc1cccc(Cl)c1 [Example 271, N-[4-(3-Chlorophenoxy)-3-methyl-5-sulfamoylphenyl]-2-phenylacetamide] | > 16 µM | 31% |  |  | 0.081 µM | 84%
COC(=O)c1ccccc1Oc1ccc(NC(=O)Cc2ccccc2Cl)cc1S(N)(=O)=O [Example 272, Methyl 2-(4-{[(2-chlorophenyl)acetyl]amino}-2-sulfamoylphenoxy)benzoate] | > 16 µM | 25% |  |  | 0.019 µM | 73%
NS(=O)(=O)c1cc(NC(=O)Cc2ccccc2Cl)ccc1Oc1ccc(N2CCOCC2=O)cc1 [Example 174, 2-(2-Chlorophenyl)-N-{4-[4-(3-oxomorpholin-4-yl)phenoxy]-3-sulfamoylphenyl}acetamide] |  |  |  | 64% |  | 74%
COc1ccc(CC(=O)Nc2ccc(Oc3ccc(Cl)cc3)c(S(N)(=O)=O)c2)c(Cl)c1 [Example 235, 2-(2-Chloro-4-methoxyphenyl)-N-[4-(4-chlorophenoxy)-3-sulfamoylphenyl]acetamide] |  |  | 0.787 µM | 69% | 0.473 µM | 79%
COc1cccc(CC(=O)Nc2ccc(Oc3cccc(Cl)c3)c(S(N)(=O)=O)c2)c1 [Example 191, N-[4-(3-Chlorophenoxy)-3-sulfamoylphenyl]-2-(3-methoxyphenyl)acetamide] |  |  | 0.149 µM | 72% | 0.05 µM | 85%
NS(=O)(=O)c1cc(NC(=O)Cc2ccccc2C(F)F)ccc1Oc1cccc(Cl)c1 [Example 089, N-[4-(3-Chlorophenoxy)-3-sulfamoylphenyl]-2-[2-(difluoromethyl)phenyl]acetamide] |  |  | 0.145 µM | 66% | 0.102 µM | 85%

Continued, values first:

IC50 (mouse P2X4 receptors) | mouse P2X4 Assay B avg Efficacy (mouse P2X4 receptors) | IC50 (P2X4 [1]) | Emax (P2X4 [1]) | IC50 (P2X4 [2]) | Emax (P2X4 [2]) | Compound
 | 41% |  |  |  |  | NS(=O)(=O)c1cc(NC(=O)Cc2ccccc2Cl)ccc1Oc1cccc(Cl)c1 [Example 187, N-[4-(3-Chlorophenoxy)-3-sulfamoylphenyl]-2-(2-chlorophenyl)acetamide]
 |  | 0.455 µM | 70% | 0.56 µM | 95% | NS(=O)(=O)c1cc(NC(=O)Cc2ccccc2Cl)ccc1Oc1ccc(C2CCC(=O)N2)cc1 (stereo not shown) [Example 062, 2-(2-Chlorophenyl)-N-{4-[4-(5-oxopyrrolidin-2-yl)phenoxy]-3-sulfamoylphenyl}acetamide]
 |  | 0.047 µM | 70% | 0.009 µM | 93% | Cc1cccc(Oc2ccc(NC(=O)Cc3ccccc3Cl)cc2S(N)(=O)=O)c1 [Example 018, 2-(2-Chlorophenyl)-N-[4-(3-methylphenoxy)-3-sulfamoylphenyl]acetamide]
 | 50% |  |  |  |  | NS(=O)(=O)c1cc(NC(=O)Cc2ccccc2Cl)ccc1Oc1cncc(Cl)c1 [Example 029, 2-(2-Chlorophenyl)-N-{4-[(5-chloropyridin-3-yl)oxy]-3-sulfamoylphenyl}acetamide]
 |  |  | 75% |  | 91% | NS(=O)(=O)c1cc(NC(=O)Cc2ccccc2Cl)ccc1OCC1CCO1 (stereo not shown) [Example 158, 2-(2-Chlorophenyl)-N-[4-(oxetan-2-ylmethoxy)-3-sulfamoylphenyl]acetamide]
 |  | 0.49 µM | 56% | 0.392 µM | 76% | C=C(C)c1ccccc1Oc1ccc(NC(=O)Cc2ccccc2Cl)cc1S(N)(=O)=O [Example 178, 2-(2-Chlorophenyl)-N-{4-[2-(prop-1-en-2-yl)phenoxy]-3-sulfamoylphenyl}acetamide]
 |  | 0.118 µM | 77% | 0.045 µM | 81% | NS(=O)(=O)c1cc(NC(=O)Cc2ccccc2Cl)ccc1OCc1cccnc1 [Example 149, 2-(2-Chlorophenyl)-N-[4-(pyridin-3-ylmethoxy)-3-sulfamoylphenyl]acetamide]

Source: US20180338980A1, “AROMATIC SULFONAMIDE DERIVATIVES” (BAYER PHARMA AKTIENGESELLSCHAFT, priority 2015, published 2018)
